According to patent US20230382916A1, “HETEROARYL HETEROCYCLIC COMPOUNDS AND USES THEREOF” (HUTCHISON MEDIPHARMA LIMITED, priority 2020, published 2023):

Experiments:
BTK recombinant protein = BTK recombinant protein (Homo sapiens (Human), UniProt Q06187); test: Determination of biochemical BTK (Z'-LYTE kinase assay); details: 32 μM ATP
From the text: BTK recombinant protein: Invitrogen, Cat #PV3363;
Z′-LYTE® kinase test kit-tyrosine 1 peptide: Invitrogen, Cat #PV3190;
Z′-LYTE® biochemical assay employs a fluorescence resonance energy transfer (FRET)-based, coupled-enzyme format and is based on the differential sensitivity of phosphorylated and non-phosphorylated peptides to proteolytic cleavage. Both ends of the short peptide substrate are labeled with two fluorescent groups to form a FRET paired combination. In the primary reaction (the Kinase Reaction), the kinase transfers the γ-phosphate of ATP to a single […] residue on the short peptide substrate. In the secondary reaction (the development reaction), the non-phosphorylated short peptides were recognized and cleaved by a site-specific protease (the development reagent). Phosphorylated short peptides can resist such cleavage. Cleavage of short peptides can disrupt the donor (such as coumarin) and receptor fluorophores (fluorescein) on the short peptides, while the phosphorylated short peptides can maintain FRET. The calculation method of the ratio is as follows, and the ratio of the respective emission signals generated by the donor fluorophores emitted (after excitation at 400 nm) to the receptors is calculated. Emission signal ratio=emitted light by coumarin (445 nm)/emitted light by fluorescein (520 nm). If the FRET short peptide is phosphorylated (such as no kinase inhibitor), the emitted light ratio will remain in a lower level. If the FRET short peptide is non-phosphorylated (such as kinase inhibitor), the emitted light ratio will be in a higher level. In this way, the inhibitory effects of different compound inhibitors on BTK kinase activity would be distinguished.
The experiment was carried out according to the instructions of the Z′-LYTE® kinase test kit-tyrosine 1 peptide. Reagent preparation: 1.33× kinase buffer: 5× kinase buffer was diluted with water to 1.33× kinase buffer; an enzyme solution: the kinase was dissolved in 1.33× kinase buffer with the final working concentration being 3.32 nM; a short peptide solution: a short peptide stock solution (1 mM dissolved in DMSO) was dissolved in 1.33× kinase buffer with the final working concentration being 2 μM; Z′-LYTE Tyr01 phosphorylated short peptide solution, 0.6 μl of stock solution (1 mM dissolved in DMSO) was dissolved in 149.4 μl of 1.33× kinase buffer; an ATP solution: an ATP stock solution (10 mM aqueous solution) was dissolved in 1.33× kinase buffer with the final working concentration being 32 μM; a color-developing solution: color-developing solution B was dissolved in color-developing buffer with the final working concentration being 1× color-developing solution; 4× compound preparation: the compound was diluted in 3-fold gradient concentration to finally obtain 4% DMSO aqueous solution containing different concentrations of the compound, with the final working concentration being 3000, 1000, 333.33, 111.11, 37.04, 12.35, 4.12, 1.37 nM, 8 concentration points in total.
Specific steps of the experiment: In the experiment, there were three control groups, each with 8 replicate wells, which were C1 100% inhibition group (no ATP), C2 0% inhibition group (with ATP), and C3 100% phosphorylation group, respectively. 2.5 μl of serially diluted compound was added to each well of a 384-well plate, with double replicate wells, and 4% DMSO solution was added to wells C1, C2, and C3. After that, except for wells C3, 2.5 μl of BTK enzyme solution was added to each remaining well, which was left to stand at 4° C. for 30 minutes. After that, except for wells C3, 2.5 μl of short peptide solution was added to each well, and 5 μl of phosphorylated short peptide solution was added to each of wells C3. 2.5 μl of 1.33× kinase buffer was added to each of wells C1 and C3, and 2.5 μl of ATP solution was added to each of the remaining wells. The wells were centrifuged transiently, and the plate was shaken at 1000 rpm for 30 seconds to perform transient centrifuge. […]

[1] = system: idiopathic thrombocytopenic purpura induced by anti-mouse CD41 antibodies; test: Idiopathic thrombocytopenic purpura induced by anti-CD41 antibody in mice, level of platelets; assay type: in vivo; details: 40 mg/kg oral single dose
Experimental: Male C57BL/6 mice were purchased from Shanghai Lingchang Biotechnology Co., Ltd. (certificate number 20180003011079, initial body weight of 18-20 grams), and were randomly grouped according to Table 4, with 8 mice in each group. […] When modeling, each mouse was intraperitoneally injected with 200 μL of PBS solution containing […] of anti-mouse CD41 antibodies (BD, Cat #: 553487, Lot #: 7026765).
Eight hours and twenty-four hours after modeling, the whole blood was collected and placed in a centrifuge tube coated with 10% citrate-phosphate-dextrose-adenine (CPDA), and the level of platelets (PLT) in the whole blood was measured by an XT-2000i (SYSMEX) automatic blood analyzer (Shanghai Laboratory Animal Research Centre Sino-British SIPPR/B & K Lab Animal Ltd).
The average level of platelets in peripheral blood was analyzed with Graphpad statistical software by one way ANOVA followed by Fisher LSD multiple comparison test, and the p value was calculated, wherein *p<0.05 indicated a statistically significant difference compared with the vehicle control group, **p<0.01 indicated a statistically extremely significant difference compared with the vehicle control group, and ##p<0.01 indicated a statistically extremely significant difference compared with the normal group.
RR %=(PLTtreatment−PLTmodel)/(PLTnaive−PLTmodel)×100%.

BTK recombinant protein, sequence (Q06187 whole entry): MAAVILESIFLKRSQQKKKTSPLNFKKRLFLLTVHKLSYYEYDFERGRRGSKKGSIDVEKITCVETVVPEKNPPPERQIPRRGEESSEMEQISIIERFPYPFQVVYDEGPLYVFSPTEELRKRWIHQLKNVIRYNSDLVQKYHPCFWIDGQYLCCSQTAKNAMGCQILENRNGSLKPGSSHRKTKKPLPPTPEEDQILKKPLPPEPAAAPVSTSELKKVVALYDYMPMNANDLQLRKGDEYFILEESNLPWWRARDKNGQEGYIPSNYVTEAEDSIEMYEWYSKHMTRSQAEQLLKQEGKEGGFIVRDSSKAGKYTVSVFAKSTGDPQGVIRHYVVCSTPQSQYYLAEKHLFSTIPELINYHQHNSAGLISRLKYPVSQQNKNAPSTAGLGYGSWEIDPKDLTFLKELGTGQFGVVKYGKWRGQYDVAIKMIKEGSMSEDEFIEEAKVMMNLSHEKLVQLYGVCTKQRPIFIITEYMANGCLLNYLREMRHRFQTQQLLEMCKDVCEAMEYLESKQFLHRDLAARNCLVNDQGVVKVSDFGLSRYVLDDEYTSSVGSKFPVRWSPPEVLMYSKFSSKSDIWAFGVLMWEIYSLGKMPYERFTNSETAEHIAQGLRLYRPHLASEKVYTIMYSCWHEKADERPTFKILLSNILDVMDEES

SMILES	IC50 (BTK recombinant protein) [nM]	recovery rate of platelets ([1]; 8 hours after modeling) [%]	recovery rate of platelets ([1]; 24 hours after modeling) [%]
C[C@H]1CN(C2COC2)C[C@H](C)N1c1ccc(Nc2cc(-c3ccnc(-n4ccn5c6c(c(F)c5c4=O)CCCC6)c3CO)cn(C)c2=O)nc1 [Compound 3]	3	–	–
C[C@H]1CN(C)C[C@H](C)N1c1ccc(Nc2cc(-c3ccnc(-n4ccn5c6c(cc5c4=O)CC(C)(C)C6)c3CO)cn(C)c2=O)nc1 [Compound 6, 2-(3′-(hydroxymethyl)-1-methyl-6-oxo-5-((5-((2S,6S)-2,4,6-trimethylpiperazin-1-yl)pyridin-2-yl)amino)-1,6-dihydro-[3,4′-bipyridin]-2′-yl)-7,7-dimethyl-7,8-dihydro-2H-cyclopenta[4,5]pyrrolo[1,2-a]pyrazin-1(6H)-one]	7	–	–
CC(C)(/C=C(\C#N)C(=O)N1CCC[C@@H](n2nc(-c3ccc(Oc4ccccc4)cc3F)c3c(N)ncnc32)C1)N1CCN(C2COC2)CC1 [PRN1008, rilzabrutinib, reference compound]	–	40	16
